# Assay results as given in patent WO2019242687A1, “1,3-dioxane-4,6-dione compound, and preparation method, pharmaceutical composition, and application thereof” (Shanghai Institute of Materia Medica of CAS, priority 2018, dated 2018).
# “Also recorded” adds a separate entry of the source.
# Assays:
# SIRT1 = biological target: T1, SIRT1 (Homo sapiens, UniProt Q96EB6); assay: Enzyme kinetic reaction test (inhibition type, Michaelis-Menten and Lineweaver-Burk plots); format: biochemical
# T1 sequence (Q96EB6 1-747): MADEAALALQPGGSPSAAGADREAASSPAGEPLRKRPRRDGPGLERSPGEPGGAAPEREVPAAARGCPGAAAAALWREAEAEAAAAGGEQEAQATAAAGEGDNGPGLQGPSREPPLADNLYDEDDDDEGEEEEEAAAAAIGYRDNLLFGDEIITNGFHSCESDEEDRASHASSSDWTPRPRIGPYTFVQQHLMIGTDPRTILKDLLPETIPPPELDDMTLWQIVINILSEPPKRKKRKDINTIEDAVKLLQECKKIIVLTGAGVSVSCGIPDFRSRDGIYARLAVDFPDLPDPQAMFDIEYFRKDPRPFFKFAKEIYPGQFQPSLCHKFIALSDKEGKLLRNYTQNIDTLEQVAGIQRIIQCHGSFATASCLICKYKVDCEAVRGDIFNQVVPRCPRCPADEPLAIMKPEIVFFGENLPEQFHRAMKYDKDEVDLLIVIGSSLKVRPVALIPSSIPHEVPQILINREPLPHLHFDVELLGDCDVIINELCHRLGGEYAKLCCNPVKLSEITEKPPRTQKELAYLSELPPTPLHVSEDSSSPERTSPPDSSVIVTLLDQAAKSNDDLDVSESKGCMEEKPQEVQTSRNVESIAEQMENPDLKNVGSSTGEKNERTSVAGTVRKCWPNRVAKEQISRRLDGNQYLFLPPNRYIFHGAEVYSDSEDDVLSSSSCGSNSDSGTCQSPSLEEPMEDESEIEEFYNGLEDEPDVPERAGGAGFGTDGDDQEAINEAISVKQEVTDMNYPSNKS
# [1] = system: p53 acetylation levels in SH-SY5Y human neuroblastoma cells; assay: Effect of compounds on p53 acetylation level in cells (Western blot); format: cell-based; conditions: ATRA-induced differentiation, compound 10 μM, 2 h, Figure 5
# [2] = fixed Abz polypeptide, with increasing S3 concentration
# [3] = fixed NAD+, with increasing S3 concentration
smiles,measurement,setting,value
"COc1cc(C=C2C(=O)OC(c3ccccc3)OC2=O)cc(Br)c1O (stereo not shown) [Compound S3, 5-(3-bromo-4-hydroxy-5-methoxybenzylidene) -2-phenyl-1,3-dioxane-4,6-dione]",apparent Michaelis constant Km′ for NAD+,SIRT1; [2],不变
same,"initial velocity V0, NAD+ varied",SIRT1; [2],减小
same,apparent Michaelis constant Km′ for Abz polypeptide,SIRT1; [3],减小
same,"initial velocity V0, substrate Abz polypeptide varied",SIRT1; [3],减小
same,type of inhibition toward NAD+,"SIRT1; fixed acetylated peptide 30 μM, varied NAD+ 31.25-1000 μM, 0.5 μM SIRT1",非竞争性抑制; also recorded: NAD +的非竞争性抑制剂
same,binding site of compound on SIRT1 relative to substrate polypeptide and NAD+ sites,SIRT1; inferred from kinetics,可能在底物多肽的结合位点; also recorded: 不在NAD +的结合位点
same,effect on decrease of p53 acetylation level,[1],抑制ATRA诱导的SH-SY5Y细胞分化过程中p53乙酰化水平降低
